According to patent US20110009628A1, “Compounds and Compositions for Modulating Lipid Levels and Methods of Preparing Same” (priority 2009, published 2011):
Counter-ions that a name gives are not always drawn. Marks after values point to notes of the source that are not given here.

Tests used:
[1] = tested on: PCSK9 protein expression in HepG2 cells; test: Western blot of PCSK9 protein in HepG2 cells, Compounds 162 and 163; format: cell-based, human; conditions: 20 μM, time-dependent, FIG. 7
Description: (§1) FIG. 7 is a Western blot analysis of LDLR and PCSK9 expression in HepG2 cells. HepG2 cells seeded in 12-well culture plates were cultured in 0.5% FBS MEM overnight. Compounds 162 and 163 at 20 μM were added to cells for the indicated times. Untreated and treated cells were harvested at the same indicated time points. Total cell lysates were isolated and 50 μg per sample was analyzed for LDLR and PCSK9 protein abundance by western blotting. The membrane was reprobed with anti-actin antibody to examine the equal loading of cell lysates.
Recent studies have identified the liver secreted serine protease PCSK9 (proprotein convertase subtilisin type 9) as a natural inhibitor of LDLR protein expression that degrades hepatic LDLR protein, thus increasing circulating LDL-C levels.

[2] = tested on: cholesterol 7α-hydroxylase (CYP7A) mRNA; test: Liver cholesterol 7α-hydroxylase (CYP7A) mRNA in treated hamsters, real-time PCR; format: in vivo, hamster; conditions: 100 mg/kg, 2 weeks, p<0.01
Text: The conversion of cholesterol to bile acids by the liver and their subsequent excretion in the feces represent a major route for the elimination of sterol from the body. The cholesterol 7α-hydroxylase is the first and rate-limiting enzyme in the bile acid biosynthetic pathway. The measurement of the mRNA expression level of cholesterol 7α-hydroxylase (CYP7A) is widely used as a means to monitor bile acid synthesis in liver. To assess the effect of Compound 162 on liver bile acid synthesis, the mRNA levels of CYP7A were measured in vehicle and liver samples from hamsters treated with 100 mg/kg Compound 162 by real-time PCR as described above.

[3] = tested on: LDLR protein expression in HepG2 cells; test: Western blot of LDLR protein in HepG2 cells, Compounds 162 and 163; format: cell-based, human; conditions: 20 μM, 16 or 24 hours, FIG. 7
Description: as §1
Chicken anti-LDLR was purchased from Abcam. HepG2 cells cultured in 60-mm dishes were incubated overnight in medium containing 0.5% fetal bovine serum prior to the addition of compounds at 20 μM concentration. After 16 or 24 hours of treatment, total cell lysate was isolated and 50 μg of protein was separated on SDS-PAGE and transferred to nitrocellulose membrane for immunoblotting with anti-LDLR.

Hyperlipidemic Hamsters = test: Serum lipids and biochemistry in hyperlipidemic hamsters on high fat high cholesterol diet, 2 weeks oral Compound 162; format: in vivo, Golden Syrian Hamsters; conditions: for ALT / AST / BUN / Bil-T / Creatinine / Glucose / HDL-C / TC / TG: serum, HFHC feeding, n = 10
Description: Male hamsters were fed a cholesterol-enriched diet for 14 days before the daily oral feeding of Compound 162 at 30, 60, and 100 mg/kg, or an equal volume of vehicle for 2-weeks. Serum samples were collected after 2 weeks of treatment and analyzed for TC, TG, and HDL-C. The data shown are mean±SEM of 10 hamsters per group (* p<0.05, ** p<0.01 compared to untreated control group).
Male Golden Syrian Hamsters were used as an animal model to examine the in vivo effects of Compound 162 in plasma lipid levels. In one experiment, 40 male hamsters under a high fat and high cholesterol diet were divided into 4 groups of 10 hamsters per group. Group 1 was given vehicle only and groups 2-4 were given Compound 162 at 30, 60, and 100 mg/kg/day by an orogastric tube for 2 weeks. At the end of treatment, hamsters were sacrificed and blood and sera were collected to measure lipid levels and several critical parameters of liver function and kidney function.

liver LDLR mRNA = test: Liver LDLR mRNA in treated hamsters, quantitative real-time RT-PCR; format: in vivo, hamster; conditions: 100 mg/kg, 2 weeks, 10 animals per group, p<0.001
Description: (§2) To directly correlate the LDL-C and VLDL-C lowering effects of Compound 162 with its ability to upregulate hepatic LDLR expression and down-regulation of PCSK9, at the end of treatment, animals from vehicle and Compound 162 100 mg/kg treated groups were euthanized and levels of liver LDLR and PCSK9 mRNA were individually assessed by quantitative real-time RT-PCR using hamster specific probes. The results represent mean±SEM of 10 animals per group. The liver expression of LDLR mRNA was increased 1.7-fold over control by Compound 162 treatment (p<0.001). […] Thus, these in vivo data confirmed the in vitro effects of Compound 162 in upregulating LDLR mRNA while inhibiting PCSK9 mRNA expressions.

liver PCSK9 mRNA = test: Liver PCSK9 mRNA in treated hamsters, quantitative real-time RT-PCR; format: in vivo, hamster; conditions: 100 mg/kg, 2 weeks, 10 animals per group
Description: as §2

[4] = 100 mg/kg, 2 weeks, hamsters, FIG. 8

Question: Which results are given for `COc1cc2c(cc1OC)C1Cc3ccc(OC)c(OS(=O)(=O)c4cccc(F)c4)c3CN1CC2` (single isomer, unassigned) [Compound 162, 2,3,10-Trimethoxy-5,6,7,8,13,13a-hexahydroisoquinolino[2,1-b]isoquinolin-9-yl 3-fluorobenzenesulfonate phosphate Salt (Enantiomer having positive optical rotation)]?
Answer: PCSK9 cellular levels [1]: greatly decreased; CPY7A mRNA expression in liver versus vehicle control [2]: 2.7 fold; LDLR mRNA and protein expression [3]: significantly enhance; increase of HDL-C (Hyperlipidemic Hamsters; [4]): 21%; reduction of serum TC (Hyperlipidemic Hamsters; [4]): 46%; reduction of serum TG (Hyperlipidemic Hamsters; [4]): 63.7%; VLDL-C, LDL-C in pooled serum (HPLC lipoprotein profile) (Hyperlipidemic Hamsters; 30, 60, 100 mg/kg/day, hamsters fed the HFHC diet, FIGS. 9A and 9B): dose-dependently lowered; Blood glucose level (Hyperlipidemic Hamsters; hamsters, 2 weeks): not changed; kidney function (Hyperlipidemic Hamsters; hamsters, 2 weeks): improved; serum levels of AST and ALT versus control group (Hyperlipidemic Hamsters; hamsters, 2 weeks): statistically lower; ALT (Hyperlipidemic Hamsters; 30 mkg, 2 weeks): 441 ± 401 IU/L; AST (Hyperlipidemic Hamsters; 30 mkg, 2 weeks): 202.0 ± 135 IU/L; BUN (Hyperlipidemic Hamsters; 30 mkg, 2 weeks): 4.5 ± 0.9 mmol/L; Bil-T (Hyperlipidemic Hamsters; 30 mkg, 2 weeks): 0.6 ± 1.0 µmol/L; Creatinine (Hyperlipidemic Hamsters; 30 mkg, 2 weeks): 17.8 ± 6.1* umol/L; Glucose (Hyperlipidemic Hamsters; 30 mkg, 2 weeks): 3.8 ± 0.8 mmol/L; HDL-C (Hyperlipidemic Hamsters; 30 mkg, 2 weeks): 3.9 ± 0.5 mmol/L; TC (Hyperlipidemic Hamsters; 30 mkg, 2 weeks): 19.0 ± 10.1 mmol/L; TG (Hyperlipidemic Hamsters; 30 mkg, 2 weeks): 9.4 ± 9.2 mmol/L; ALT (Hyperlipidemic Hamsters; 60 mkg, 2 weeks): 353 ± 250 IU/L; AST (Hyperlipidemic Hamsters; 60 mkg, 2 weeks): 151.5 ± 61 IU/L; BUN (Hyperlipidemic Hamsters; 60 mkg, 2 weeks): 5.0 ± 0.7 mmol/L; Bil-T (Hyperlipidemic Hamsters; 60 mkg, 2 weeks): 0.3 ± 0.3* umol/L; Creatinine (Hyperlipidemic Hamsters; 60 mkg, 2 weeks): 15.7 ± 4.2** umol/L; Glucose (Hyperlipidemic Hamsters; 60 mkg, 2 weeks): 5.0 ± 1.0 mmol/L; HDL-C (Hyperlipidemic Hamsters; 60 mkg, 2 weeks): 3.9 ± 0.5 mmol/L; TC (Hyperlipidemic Hamsters; 60 mkg, 2 weeks): 16.9 ± 8.7* mmol/L; TG (Hyperlipidemic Hamsters; 60 mkg, 2 weeks): 7.6 ± 8.1* mmol/L; ALT (Hyperlipidemic Hamsters; 100 mkg, 2 weeks): 376 ± 262 IU/L; AST (Hyperlipidemic Hamsters; 100 mkg, 2 weeks): 150.4 ± 42 IU/L; BUN (Hyperlipidemic Hamsters; 100 mkg, 2 weeks): 4.8 ± 0.7 mmol/L; Bil-T (Hyperlipidemic Hamsters; 100 mkg, 2 weeks): 0.2 ± 0.2* umol/L; Creatinine (Hyperlipidemic Hamsters; 100 mkg, 2 weeks): 15.3 ± 3.2** umol/L; Glucose (Hyperlipidemic Hamsters; 100 mkg, 2 weeks): 5.0 ± 1.3 mmol/L; HDL-C (Hyperlipidemic Hamsters; 100 mkg, 2 weeks): 4.2 ± 0.5** mmol/L; TC (Hyperlipidemic Hamsters; 100 mkg, 2 weeks): 16.4 ± 5.8*** mmol/L; TG (Hyperlipidemic Hamsters; 100 mkg, 2 weeks): 6.7 ± 5.2* mmol/L; liver expression of LDLR mRNA (liver LDLR mRNA): 1.7 fold over control; liver mRNA levels of PCSK9 (liver PCSK9 mRNA): 57 % of vehicle control
